2 compounds from publication PMC10459693, “Toward Stability Enhancement of NTS1R-Targeted Radioligands: Structural Interventions on [^99mTc]Tc-DT1” (Pharmaceutics, 2023) can be followed below.

For the test, the target named is T1, human NTS1R (Homo sapiens, UniProt P30989).
T1 construct: Cell membrane homogenates from WiDr cells were collected; host or cells: WiDr human colorectal adenocarcinoma cells (membrane homogenates)
In words: Competition binding against [^125I]I-Tyr^3-NT in WiDr cell membranes. Conditions: for IC50: displacement of [^125I]I-Tyr^3-NT, WiDr cell membranes, 1 h at 22 °C, mean ± sd. The method, then:
Cell membrane homogenates from WiDr cells were collected and stored in Tris/EDTA (10 mM Tris, 0.1 mM EDTA, pH 7.4) solution at −80 °C, as previously described. On the day of the experiment, the aliquots thereof were thawed, combined, and diluted in cold binding buffer (BB: 50 mM HEPES, 5.5 mM MgCl2, 0.1 mg/mL bacitracin, 1% w/v BSA, pH 7.4). A dilution series of each test peptide (10^−12–10^−5 M) and a fresh solution of [^125I]I-Tyr^3-NT (~40,000 cpm/70 μL, 214 pM) were prepared and kept on ice. In each RIA tube per placed on ice (in triplicate for each concentration point), the following ice-cold solutions were added: test peptide solution (30 μL), the [^125I]I-Tyr^3-NT radioligand (70 μL), and membrane homogenate (200 μL). Tubes were incubated under constant stirring for 1 h at 22 °C in an Incubator-Orbital Shaker (MPM Instr. Srl; Bernareggio, Italy). The incubation was terminated by placing the tubes on ice and adding ice-cold washing buffer (10 mM HEPES, 150 mM NaCl, pH 7.4). Samples were rapidly passed through Whatman GF/B filters (presoaked for 1 h in BB) on a 48-sample Brandel Cell Harvester (Adi Hassel Ingenieur Büro, Munich, Germany). Separate filters were measured for radioactivity on the γ-counter, and the half maximal inhibition concentration (IC50) was calculated applying a non-linear one-site model (GraphPad Prism Software 6.0, San Diego, CA, USA).

Square brackets hold non-standard residues; d marks the D form. Peptide text beside a SMILES is read from it. * marks the point of attachment. Palmitoyl = CCCCCCCCCCCCCCCC(=O)*; X1 = NCCNCC(CNCCN)C(=O)*

T1 sequence (P30989 whole entry): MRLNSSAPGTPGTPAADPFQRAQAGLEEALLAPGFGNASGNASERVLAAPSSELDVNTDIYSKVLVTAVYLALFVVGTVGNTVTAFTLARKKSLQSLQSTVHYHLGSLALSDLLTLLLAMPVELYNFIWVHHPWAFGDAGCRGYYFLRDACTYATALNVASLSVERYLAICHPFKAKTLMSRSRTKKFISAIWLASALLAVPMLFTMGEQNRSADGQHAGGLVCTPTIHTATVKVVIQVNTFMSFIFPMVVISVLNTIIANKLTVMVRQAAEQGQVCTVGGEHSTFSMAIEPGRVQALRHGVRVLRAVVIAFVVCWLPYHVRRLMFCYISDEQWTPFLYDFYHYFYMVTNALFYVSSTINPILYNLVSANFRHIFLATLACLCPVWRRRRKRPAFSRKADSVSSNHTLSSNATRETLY

Turning to `CC[C@H](C)[C@H](NC(=O)[C@H](Cc1ccc(O)cc1)NC(=O)[C@@H]1CCCN1C(=O)[C@H](CCCNC(=N)N)NC(=O)[C@H](CCCNC(=N)N)NC(=O)CNC(=O)C(CNCCN)CNCCN)C(=O)N[C@@H](CC(C)C)C(=O)N[C@H](CC(N)=O)C(=O)O` [DT7, N4-Gly-Arg-Arg-Pro-Tyr-Ile-Leu-DAsn-OH] (X1-GRRPYIL[dN]-OH), the IC50 – broadly, the concentration at which inhibition is half-maximal – is 29.1 ± 4.11 nM. The “drop of binding affinity to the NTS1R compared to DT1” value (by a power of) is given as ~100.

`CCCCCCCCCCCCCCCC(=O)NCCCC[C@H](NC(=O)C(CNCCN)CNCCN)C(=O)N[C@@H](CCCNC(=N)N)C(=O)N[C@@H](CCCNC(=N)N)C(=O)N1CCC[C@H]1C(=O)N[C@@H](Cc1ccc(O)cc1)C(=O)N[C@H](C(=O)N[C@@H](CC(C)C)C(=O)O)[C@@H](C)CC` [DT9] (X1-K(Palmitoyl)RRPYIL-OH): the IC50 is 0.89 ± 0.7 nM.
